“Also recorded” adds a separate entry of the source.
Assays:
[1] = system: DPPIV−/− knockout mice; experiment: LSEC engraftment/repopulation of irradiated liver by DPPIV staining (Examples 2 and 3); assay type: in vivo, mouse
Protocol: (§1) 8-12-week-old male and female Di-peptyl peptidase IV (DPPIV) −/− knockout mice and 8-12-week-old male and female C57Bl6 mice were used in this study. Animals were weighed in the beginning of the experiment and before tissue collection. All animals were housed in the Institute for Animal Studies at Albert Einstein College of medicine and fed regular rodent chow. All experiments were performed to according to protocols approved by Institutional Animal Care and Use Committee at Albert Einstein College of Medicine. Animals were made cirrhotic using CCl4 administration (intraperitoneal [IP] injections twice a week for at least 11 weeks).
Image-guided external beam irradiation was performed using a small animal radiation research platform (SARRP, Xstrahl Inc., Suwanee, Ga.). Mice were given gastrografin contrast through gavage to improve visualization of the gastrointestinal (GI) tract. After approximately 2 minutes, mice were positioned on a tubular couch and anesthetized with ˜2% Isofluorane (Isothesia, USP) in 2 L/min pure oxygen. A cone-beam computed tomography (CBCT) scan was acquired and a treatment plan irradiating the median lobe and right lobe was generated using the MuriPlan software. […] Within the targeted lobes, the position of the isocenter was chosen to minimize irradiation of the GI tract, spine, and heart (the maximum dose to these organs was kept below 10 Gy). Targets were irradiated with 50 Gy X-rays at 220 kVp energy and 13 mA tube current (dose rate of 2.4-2.5 Gy/min) using a 1 mm copper filter for beam hardening.
(§2) TPOm was diluted in sterile PBS to a 10 mg/ml stock. The stock was stored at −20° C. and allowed to come to room temperature prior to administration. TPOm was administered as a single dose (300 μg/kg) via subcutaneous injection 10 minutes after the transplant procedure.
DPPIV was selected as a marker for engraftment of exogenous LSECs in the DPPIV (−/−) animals. […] Slide imaging was done using a Perkin Elmer P250 High Capacity Slide Scanner.
LSECs were isolated from the single-cell suspension using CD146 microbeads (Miltenyi Biotec GmbH #130-092-007).
Following isolation of LSECs, 500×10^5 LSECs are transplanted via intrasplenic injection into healthy adult mice anesthetized with Isoflurane (Isothesia, USP) 24 hrs post HIR. Buprenorphine is given post-op as an analgesic.
To test the efficacy of TPOm as an agent that can cause LSEC engraftment, DPPIV−/− knockout mice received 50GY hepatic irradiation (HIR) to the median and right lobes of the liver using external-beam CT-guided x-ray irradiation, and LSECs that express DPPIV (FIG. 2A).
The methods were identical to those described above with the exception that the LSEC transplant was administered 4-5 days post irradiation and the TPOm or Romiplostim were administered approximately 10 minutes post LSEC transplant.

[2] = system: mice with normal or cirrhotic (CCl4) livers; experiment: SPECT-CT residual perfusion defect volume after hepatic irradiation (Example 2); assay type: in vivo, mouse
Protocol: as §1
Image-guided external beam irradiation was performed using a small animal radiation research platform (SARRP, Xstrahl Inc., Suwanee, Ga.). Mice were given gastrografin contrast through gavage to improve visualization of the gastrointestinal (GI) tract. After approximately 2 minutes, mice were positioned on a tubular couch and anesthetized with ˜2% Isofluorane (Isothesia, USP) in 2 L/min pure oxygen. A cone-beam computed tomography (CBCT) scan was acquired and a treatment plan irradiating the median lobe and right lobe was generated using the MuriPlan software. To minimize toxicity, in contrast to Example 1 where two parallel opposed fields were used, irradiation was performed using 2 arcs per liver target with equal dosing weights (likely resulting in more collateral lower dose radiation exposure compared to Example 1). Within the targeted lobes, the position of the isocenter was chosen to minimize irradiation of the GI tract, spine, and heart (the maximum dose to these organs was kept below 10 Gy). Targets were irradiated with 50 Gy X-rays at 220 kVp energy and 13 mA tube current (dose rate of 2.4-2.5 Gy/min) using a 1 mm copper filter for beam hardening. (Brodin et al., The Radiation Safety Journal, 2015, 109 Supp 3, S190).
as §2
LSEC transplantation is a novel technique that requires a strong growth stimulus for effective liver repopulation (Guha et al., Hepatology, 2002, 36:354-62; Laconi et al., Am. J. Pathol., 1998, 153:319-29). Following isolation of LSECs, 500×10^5 LSECs are transplanted via intrasplenic injection into healthy adult mice anesthetized with Isoflurane (Isothesia, USP) 24 hrs post HIR. […]
SPECT with a radiotracer to assess the progression of RILD in-vivo has been developed and utilized in this work. […] The CT was set on medium resolution and was measured by a dosimeter and read by a third-party company, at an exposure of 5 mRem/hr for each CT scan/animal. […]

Substance: methoxypolyethyleneglycol20000-propionyl-L-Isoleucyl-L-Glutamyl-Glycyl-L-Prolyl-L-Threonyl-L-Leucyl-L-Arginyl-L-Glutaminyl-L-2-Naphthylalanyl-L-Leucyl-L-Alanyl-L-Alanyl-L-Arginyl-Sarcosyl-Ne-(methoxypolyethyleneglycol20000-propionyl-L-Isoleucyl-L-Glutamyl-Glycyl-L-Prolyl-L-Threonyl-L-Leucyl-L-Arginyl-L-Glutaminyl-L-2-Naphthyl alanyl-L-Leucyl-L-Alanyl-L-Alanyl-L-Arginyl-Sarcosyl-)-Lysinamide [RWJ-800088]
- repopulation of irradiated liver by transplanted DPPIV(+/+) LSECs (DPPIV staining) ([1]; 50GY HIR + LSEC transplant 24 hrs post HIR, growth stimulus given after transplant, listed as TPOm): massive LSEC repopulation
- animals with some level of hepatic repopulation ([1]; LSEC+TPOm+HIR): 6/7
- Engraftment when LSEC transplant is administered 24 hours post irradiation ([1]; targeted liver irradiation (50 Gy)): Yes
- Engraftment when LSEC transplant is administered 4-5 days post irradiation ([1]; targeted liver irradiation (50 Gy), drug approximately 10 minutes post LSEC transplant): Yes
- perfusion defect of irradiated liver tissue (SPECT-CT), in words ([2]; LSEC transplant followed by TPOm injection post irradiation): perfusion recovery; also recorded: significant mitigation of defect formation
- residual defect 2 months post radiation, cirrhotic liver ([2]; cirrhotic livers, RWJ-800088 and LSEC transplantation 24-hours post irradiation, listed as TPOm): significantly reduced
- mean residual defect volume in the irradiated region ([2]; normal livers, RWJ-800088 2 or 24 hours prior to irradiation, without LSEC transplant, 2 months post HIR, listed as TPOm): significant reduction in defect volume
- residual defect volume in the irradiated area ([2]; normal livers, RWJ-800088 and LSEC transplantation 24 hours after irradiation, 2 months post HIR, p=0.03, HIR only 71.4%): 18.2%

Source: US20200237871A1, “METHODS FOR MITIGATING LIVER INJURY AND PROMOTING LIVER HYPERTROPHY, REGENERATION AND CELL ENGRAFTMENT IN CONJUNCTION WITH RADIATION AND/OR RADIOMIMETIC TREATMENTS” (Janssen Pharmaceutica NV, priority 2019, published 2020)
